# Data: ChEMBL document CHEMBL5576135, “Discovery of Indolo[3,2-c]isoquinoline Derivatives as Novel Top1/2 Dual Inhibitors with Orally Efficacious Antitumor Activity and Low Toxicity” (J Med Chem, 2024)
# Active and inactive are the calls of the source. The rule behind the calls is not given here.
# Experiments:
# NCI-H446 [1] = test: Antitumor activity against human NCI-H446 cells xenografted with BALB/c mouse assessed as tumor growth inhibition by measuring T/C ratio at 50 mg/kg,po administrated once daily for 21 days; type: functional; conditions: time 21 day
# [2] = molecular target: T1, DNA topoisomerase 1 (Homo sapiens) (UniProt P11387); test: Inhibition of Topoisomerase I (unknown origin) using pBR322 DNA as substrate at 1 uM incubated for 15 mins by EtBr staining based agarose gel electrophoresis method
# T1 sequence (whole entry): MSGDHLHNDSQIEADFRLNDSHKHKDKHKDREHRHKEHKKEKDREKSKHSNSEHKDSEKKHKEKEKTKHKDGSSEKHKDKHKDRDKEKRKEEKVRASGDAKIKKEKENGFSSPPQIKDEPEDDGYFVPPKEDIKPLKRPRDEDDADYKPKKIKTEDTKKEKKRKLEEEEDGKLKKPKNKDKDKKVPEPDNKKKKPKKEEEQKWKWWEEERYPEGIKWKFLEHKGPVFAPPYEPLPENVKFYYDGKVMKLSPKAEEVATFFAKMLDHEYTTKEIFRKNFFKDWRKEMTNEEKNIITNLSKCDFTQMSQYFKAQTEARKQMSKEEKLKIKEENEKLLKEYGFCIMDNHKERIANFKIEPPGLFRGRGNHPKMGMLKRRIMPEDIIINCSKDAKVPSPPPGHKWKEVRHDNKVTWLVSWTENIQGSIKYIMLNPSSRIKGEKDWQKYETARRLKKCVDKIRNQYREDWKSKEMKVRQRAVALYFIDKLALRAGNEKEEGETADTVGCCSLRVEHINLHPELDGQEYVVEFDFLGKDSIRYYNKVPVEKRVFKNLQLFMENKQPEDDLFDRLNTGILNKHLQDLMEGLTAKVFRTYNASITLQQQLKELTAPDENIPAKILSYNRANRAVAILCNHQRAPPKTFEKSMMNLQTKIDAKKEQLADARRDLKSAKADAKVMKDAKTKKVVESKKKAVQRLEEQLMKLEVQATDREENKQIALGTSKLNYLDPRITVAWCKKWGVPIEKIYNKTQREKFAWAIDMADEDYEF
# NCI-H446 [3] = test: Antitumor activity against human NCI-H446 cells xenografted with BALB/c mouse assessed as tumor growth inhibition at 100 mg/kg,po administrated once daily for 21 days relative to control; type: functional; conditions: NCI-H446, 504 h, time 21 day, read-out: TGI
# HCT-116 [4] = test: Antitumor activity against human HCT-116 cells xenografted with BALB/c mouse assessed as tumor growth inhibition at 50 mg/kg,po administrated once daily for 21 days relative to control; type: functional; conditions: HCT-116, 504 h, time 21 day, read-out: TGI
# HCT-116 [5] = test: Antitumor activity against human HCT-116 cells xenografted with BALB/c mouse assessed as tumor growth inhibition at 100 mg/kg,po administrated once daily for 21 days relative to control; type: functional; conditions: HCT-116, 504 h, time 21 day, read-out: TGI
# HCT-116 [6] = test: Antitumor activity against human HCT-116 cells xenografted with BALB/c mouse assessed as tumor growth inhibition by measuring T/C ratio at 100 mg/kg,po administrated once daily for 21 days; type: functional; conditions: time 21 day
smiles,measurement,setting,value
CN(C)CCCn1c2cc3c(cc2c2ncc4ccccc4c21)OCO3,T/C,NCI-H446 [1],52.3%
same,inhibition,[2],Active
same,inhibition in vivo at 100 mg/kg,NCI-H446 [3],66.1%
same,inhibition in vivo at 50 mg/kg,HCT-116 [4],40.8%
same,inhibition in vivo at 100 mg/kg,HCT-116 [5],77.4%
same,T/C,HCT-116 [6],18%
